Results published in US20220324835A1 (Nurix Therapeutics, Inc., priority 2018, published 2022).

Legend:
Cbl-b [1] = molecular target: T1, Cbl-b (Homo sapiens, UniProt Q13191); assay: Cbl-b inhibition assay (Cbl-b activity assay, FRET, Biological Example 1; 100 mM NaCl, 60 nM Src kinase); format: biochemical; details: upper bound stated in text lists; read-out: IC50 values in the Cbl-b inhibition assay of Biological Example 1
How it was run: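 Inhibitor activity is measured as reduced terbium-to-fluorescein FRET between streptavidin-terbium on biotinylated Cbl-b and Bodipy-fluorescein ubiquitin carried by an irreversible UbcH5B-Ub conjugate, binding of which depends on Src phosphorylation of Cbl-b.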

T-cell [2] = assay: IL-2 secretion from T-cells co-stimulated with anti-CD3 and anti-CD28 antibody (Biological Example 2); format: cell-based, human; details: Homo sapiens, T-cell, primary human total T-cells, baseline = anti-CD3/anti-CD28 stimulated cells without inhibitor, read-out: IL-2 secretion, Anti-CD3/Anti-CD28 stimulation, fold change over baseline; for fold induction at 0.3 µM: 0.3 μM compound; for fold induction at 1 µM: 1 μM compound; for fold induction at 4 µM: 4 μM compound
How it was run: (§1)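 No assay protocol given; T-cells stimulated with anti-CD3 alone or anti-CD3 plus anti-CD28, with or without Cbl-b inhibitor. Activation read as IL-2 secretion or CD25 surface staining, expressed as fold over baseline from uninhibited cells […].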

T-cell [3] = assay: CD25 cell surface staining on T-cells co-stimulated with anti-CD3 and anti-CD28 antibody (Biological Example 2); format: cell-based, human; details: Homo sapiens, T-cell, primary human total T-cells, baseline = anti-CD3/anti-CD28 stimulated cells without inhibitor, read-out: CD25 staining, Anti-CD3/Anti-CD28 stimulation, fold change over baseline; for fold induction at 0.3 µM: 0.3 μM compound; for fold induction at 1 µM: 1 μM compound; for fold induction at 4 µM: 4 μM compound
How it was run: as §1

Cbl-b [4] = molecular target: T1, Cbl-b; assay: Cbl-b activity assay (Cbl-b inhibition assay), TR-FRET of Cbl-b interaction with UbcH5B-Ub; format: biochemical; details: assay buffer with 100 mM NaCl, 60 nM Src kinase; read-out: Cbl-b activity IC50
How it was run: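 TR-FRET readout of Cbl-b binding to Bodipy-fluorescein N-terminally labeled Ub conjugated to UbcH5B C85K, measured with compound present. After compound incubation, 60 nM Src kinase with 1 mM ATP and 5 mM MgCl2 (final) was added for 1.5 h, then a further 1 h incubation; asterisked values used 50 mM NaCl buffer and 30 nM Src.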

Cbl-b (residues 36-427) = Cbl-b (residues 36-427) (Homo sapiens, UniProt Q13191); assay: Cbl-b binding assay (SPR, Biacore T200); details: 20° C., 1:1 binding model
How it was run: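 Affinities derived from global 1:1 steady-state or kinetic fits of double-referenced, solvent-corrected SPR data, 20 °C, NeutrAvidin-capture chip. Compound series (top 100 or 50 μM, 8–10 points) injected 50 s, 90–180 s dissociation. Asterisked values used 50 mM instead of 100 mM NaCl and 30 nM Src kinase.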

T-cell [5] = assay: IL-2 secretion from T-cells stimulated with anti-CD3 antibody alone (Biological Example 2); format: cell-based; details: primary human total T-cells, read-out: IL-2 secretion, Anti-CD3 stimulation, fold change over baseline; for fold induction at 1 µM: 1 μM compound; for fold induction at 8 µM: 8 μM compound
T-cell [6] = assay: CD25 cell surface staining on T-cells stimulated with anti-CD3 antibody alone (Biological Example 2); format: cell-based; details: primary human total T-cells, baseline = anti-CD3/anti-CD28 stimulated cells without inhibitor, read-out: CD25 staining, Anti-CD3 stimulation, fold change over baseline; for fold induction at 1 µM: 1 μM compound; for fold induction at 8 µM: 8 μM compound

T1 sequence (Q13191 36-427): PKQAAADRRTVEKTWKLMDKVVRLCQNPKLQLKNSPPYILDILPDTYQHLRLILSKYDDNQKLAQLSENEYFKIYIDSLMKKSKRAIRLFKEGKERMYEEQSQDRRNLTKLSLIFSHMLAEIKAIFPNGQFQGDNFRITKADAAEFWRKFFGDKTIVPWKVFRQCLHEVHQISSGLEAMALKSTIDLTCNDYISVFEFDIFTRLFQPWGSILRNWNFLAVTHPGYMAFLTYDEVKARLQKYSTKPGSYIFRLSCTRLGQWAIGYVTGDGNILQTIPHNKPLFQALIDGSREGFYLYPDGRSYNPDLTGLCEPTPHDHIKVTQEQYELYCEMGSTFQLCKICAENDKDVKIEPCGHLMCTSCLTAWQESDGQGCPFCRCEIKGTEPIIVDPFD
Sequence of Cbl-b (residues 36-427) (Q13191 36-427): as above

SMILES | IC50 (Cbl-b [1]) [nM] | fold induction at 0.3 µM (T-cell [2]) | fold induction at 1 µM (T-cell [2]) | fold induction at 4 µM (T-cell [2]) | fold induction at 0.3 µM (T-cell [3]) | fold induction at 1 µM (T-cell [3]) | fold induction at 4 µM (T-cell [3]) | IC50 (Cbl-b [4]) [nM] | Kd (Cbl-b (residues 36-427)) [nM] | fold induction at 1 µM (T-cell [5]) | fold induction at 8 µM (T-cell [5]) | fold induction at 1 µM (T-cell [6]) | fold induction at 8 µM (T-cell [6])
C[C@H](Cc1nncn1C)c1cccc(N2Cc3c(cc(CN4CCC(F)(F)C4)cc3C(F)(F)F)C2=O)c1 [Compound 396, (R)-6-((3,3-difluoropyrrolidin-1-yl)methyl)-2-(3-(1-(4-methyl-4H-1,2,4-triazol-3-yl)propan-2-yl)phenyl)-4-(trifluoromethyl)isoindolin-1-one] | ≤ 100 | 2.51 to 5 | 5 to 7.5 | > 7.5 | 1.01 to 1.3 | 1.01 to 1.3 | 1.31 to 1.5 | < 100 | < 100 | 0.151 to 0.2 | > 0.201 | > 1 | > 1
C[C@H](Cc1nncn1C)c1cccc(N2Cc3c(cc(CN4CC[C@@H](F)C4)cc3C(F)(F)F)C2=O)c1 [Compound 400, 6-(((R)-3-fluoropyrrolidin-1-yl)methyl)-2-(3-((R)-1-(4-methyl-4H-1,2,4-triazol-3-yl)propan-2-yl)phenyl)-4-(trifluoromethyl)isoindolin-1-one] | ≤ 100 | 5 to 7.5 | > 7.5 | > 7.5 | 1.01 to 1.3 | 1.01 to 1.3 | 1.31 to 1.5 | < 100 | < 100 | > 0.201 | > 0.201 | > 1 | > 1
C[C@H](Cc1nncn1C)c1cccc(N2Cc3c(cc(CN4CC(F)C4)cc3C(F)(F)F)C2=O)c1 [Compound 401, (R)-6-((3-fluoroazetidin-1-yl)methyl)-2-(3-(1-(4-methyl-4H-1,2,4-triazol-3-yl)propan-2-yl)phenyl)-4-(trifluoromethyl)isoindolin-1-one] | ≤ 100 | 2.51 to 5 | > 7.5 | > 7.5 | 1.01 to 1.3 | 1.01 to 1.3 | 1.31 to 1.5 | < 100 | < 100 | 0.151 to 0.2 | > 0.201 | > 1 | > 1
C[C@H](Cc1nncn1C)c1cccc(N2Cc3c(cc(CN4CC(F)(F)C4)cc3C(F)(F)F)C2=O)c1 [Compound 402, (R)-6-((3,3-difluoroazetidin-1-yl)methyl)-2-(3-(1-(4-methyl-4H-1,2,4-triazol-3-yl)propan-2-yl)phenyl)-4-(trifluoromethyl)isoindolin-1-one] | ≤ 100 | 5 to 7.5 | > 7.5 | > 7.5 | 1.01 to 1.3 | 1.31 to 1.5 | 1.31 to 1.5 | < 100 | < 100 | 0.151 to 0.2 | > 0.201 | > 1 | > 1
C[C@H](Cc1nncn1C)c1cccc(N2Cc3c(cc([C@@H](C)N4CC[C@H](F)C4)cc3C(F)(F)F)C2=O)c1 [Compound 403, 6-((R)-1-((S)-3-fluoropyrrolidin-1-yl)ethyl)-2-(3-((R)-1-(4-methyl-4H-1,2,4-triazol-3-yl)propan-2-yl)phenyl)-4-(trifluoromethyl)isoindolin-1-one] | ≤ 100 | 5 to 7.5 | > 7.5 | > 7.5 | 1.01 to 1.3 | 1.01 to 1.3 | 1.31 to 1.5 | < 100 | < 100 | 0.151 to 0.2 | > 0.201 | > 1 | > 1
Cc1conc1C[C@@H](C)c1cccc(N2Cc3c(cc(C(=O)N4CC[C@H](O)C4)cc3C(F)(F)F)C2=O)c1 [Compound 407, 6-((S)-3-Hydroxypyrrolidine-1-carbonyl)-2-(3-((R)-1-(4-methylisoxazol-3-yl)propan-2-yl)phenyl)-4-(trifluoromethyl)isoindolin-1-one] | ≤ 100 | 2.51 to 5 | 5 to 7.5 | > 7.5 | 1.01 to 1.3 | 1.01 to 1.3 | 1.01 to 1.3 | < 100 | < 100 | 0.101 to 0.15 | > 0.201 | > 1 | > 1
Cn1cnnc1[C@@H]1C[C@@H]1c1cccc(N2Cc3c(cc(C#N)cc3C(F)(F)F)C2=O)c1 [Compound 408, 2-(3-((1S,2R)-2-(4-methyl-4H-1,2,4-triazol-3-yl)cyclopropyl)phenyl)-3-oxo-7-(trifluoromethyl)isoindoline-5-carbonitrile] | ≤ 300 | 1.01 to 2.5 | 1.01 to 2.5 | 2.51 to 5 | 1.01 to 1.3 | 1.01 to 1.3 | 1.01 to 1.3 | 100 to 300 | 100 to 300 | < 0.05 | 0.101 to 0.15 | 0.601 to 0.8 | 0.801 to 1
Cn1cnnc1CC1(c2cccc(N3Cc4c(cc(CN5CCC(F)(F)C5)cc4C(F)(F)F)C3=O)c2)COC1 [Compound 411, 6-((3,3-difluoropyrrolidin-1-yl)methyl)-2-(3-(3-((4-methyl-4H-1,2,4-triazol-3-yl)methyl)oxetan-3-yl)phenyl)-4-(trifluoromethyl)isoindolin-1-one] | ≤ 100 | 2.51 to 5 | > 7.5 | > 7.5 | 1.01 to 1.3 | 1.01 to 1.3 | 1.01 to 1.3 | < 100 | < 100 | > 0.201 | > 0.201 | > 1 | > 1
CC(c1cc2c(c(C(F)(F)F)c1)CN(c1cccc([C@H](C)Cc3nncn3C)c1)C2=O)N1CC[C@H](O)C1 (stereo partly drawn) [Compound 416, 6-(1-((S)-3-hydroxypyrrolidin-1-yl)ethyl)-2-(3-((R)-1-(4-methyl-4H-1,2,4-triazol-3-yl)propan-2-yl)phenyl)-4-(trifluoromethyl)isoindolin-1-one] | ≤ 100 | 2.51 to 5 | > 7.5 | > 7.5 | 1.31 to 1.5 | 1.31 to 1.5 | 1.51 to 1.75 | < 100 | < 100 | 0.151 to 0.2 | > 0.201 | > 1 | > 1
C[C@H](Cc1nncn1C)c1cccc(N2Cc3c(cc(CN4CC(O)C(F)(F)C4)cc3C(F)(F)F)C2=O)c1 (stereo partly drawn) [Compound 417, 6-((3,3-difluoro-4-hydroxypyrrolidin-1-yl)methyl)-2-(3-((R)-1-(4-methyl-4H-1,2,4-triazol-3-yl)propan-2-yl)phenyl)-4-(trifluoromethyl)isoindolin-1-one] | ≤ 100 | 2.51 to 5 | 5 to 7.5 | > 7.5 | 1.01 to 1.3 | 1.31 to 1.5 | 1.31 to 1.5 | < 100 | < 100 | 0.101 to 0.15 | > 0.201 | > 1 | > 1
